In US11945816B2, “Inhibitors of EGFR and/or HER2 and methods of use” (Dana-Farber Cancer Institute, Inc., priority 2017, dated 2024) one finds EC50 data, which are given here for four molecules.

Bounds are passed on as bounds.

Usually EC50 stands for the concentration needed to bring the measured effect to its halfway point.

The target of the first assay is T1, EGFR InsSVD (D770_N771insSVD) transformed Ba/F3 cells (Homo sapiens, UniProt P00533, INS770SVD).
T1 construct: expressed in transfected cells; host or cells: Ba/F3
T1 sequence (P00533 with tags, fused parts or gaps INS770SVD): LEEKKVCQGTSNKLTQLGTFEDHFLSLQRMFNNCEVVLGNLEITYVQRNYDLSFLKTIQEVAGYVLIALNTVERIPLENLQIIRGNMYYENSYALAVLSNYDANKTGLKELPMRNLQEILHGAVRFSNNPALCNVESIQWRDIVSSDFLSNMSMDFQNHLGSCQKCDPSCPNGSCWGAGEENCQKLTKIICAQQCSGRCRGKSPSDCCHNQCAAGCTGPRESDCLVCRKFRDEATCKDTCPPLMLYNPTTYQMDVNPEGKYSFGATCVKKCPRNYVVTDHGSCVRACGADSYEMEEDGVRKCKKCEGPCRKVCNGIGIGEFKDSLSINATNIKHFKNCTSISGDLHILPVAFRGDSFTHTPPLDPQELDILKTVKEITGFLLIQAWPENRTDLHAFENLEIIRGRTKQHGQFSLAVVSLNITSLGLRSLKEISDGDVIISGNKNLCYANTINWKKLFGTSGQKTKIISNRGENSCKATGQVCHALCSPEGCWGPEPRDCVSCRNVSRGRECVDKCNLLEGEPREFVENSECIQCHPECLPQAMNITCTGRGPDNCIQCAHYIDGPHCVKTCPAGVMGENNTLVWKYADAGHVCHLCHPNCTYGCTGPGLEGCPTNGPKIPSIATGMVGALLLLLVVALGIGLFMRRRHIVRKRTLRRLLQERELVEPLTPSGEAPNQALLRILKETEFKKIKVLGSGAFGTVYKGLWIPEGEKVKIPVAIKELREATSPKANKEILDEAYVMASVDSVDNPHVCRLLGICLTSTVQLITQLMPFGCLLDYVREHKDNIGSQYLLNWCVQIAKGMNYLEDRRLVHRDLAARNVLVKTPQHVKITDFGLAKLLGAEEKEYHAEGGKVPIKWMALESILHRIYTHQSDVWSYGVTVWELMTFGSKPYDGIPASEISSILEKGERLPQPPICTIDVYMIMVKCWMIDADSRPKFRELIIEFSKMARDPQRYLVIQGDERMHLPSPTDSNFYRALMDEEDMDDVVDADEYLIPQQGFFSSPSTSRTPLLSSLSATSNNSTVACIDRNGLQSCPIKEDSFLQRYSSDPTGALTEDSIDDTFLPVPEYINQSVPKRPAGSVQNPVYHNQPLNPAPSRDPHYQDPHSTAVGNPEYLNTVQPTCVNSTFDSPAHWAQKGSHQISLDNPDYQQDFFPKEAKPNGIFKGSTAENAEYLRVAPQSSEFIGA
Put plainly: Proliferation inhibition assay, EGFR InsSVD transformed Ba/F3 cells. The class given is cell-based. Particulars: MTS assay, 72 hours. As to the method:
(§1) Cell growth inhibition can be assessed by MTS assay or by Cell Titer Glo Luminescent Cell viability assay (Promega®). Cells are seeded and grow in culture plates before they are exposed to representative compounds of the application for various duration. The viability of the cells are then assessed. […] The growth curves can be fitted using a nonlinear regression model with sigmoidal dose response.
(§2) Cell growth inhibition was assessed by MTS assay for Ba/F3, DFCI58-229, and DFCI127c cells, or by Cell Titer Glo Luminescent Cell viability assay (Promega®) for DFC1362JC cells, 3000 Ba/F3 cells were seeded for per well in 96-well plates, and were exposed to representative compounds of the application (3.3 nM to 10 μM) for 72 hours. For DFCI58-229, DFCI127c, and DFC1362JC cells, 5000 cells were seeded per well. All experimental points included 6 to 12 wells. […] The growth curves were fitted using a nonlinear regression model with sigmoidal dose response.
(§3) Activities of representative compounds of the present application in inhibiting EGFR and HER2 were tested by MTS assay (for Ba/F3 cell, DFCI58-229 cell, and DFCI127c cells) or by CellTiter-Glot luminescent cell viability assay (for DFCI362JC cells). For assays with Ba/F3 cells, 3000 cells were seeded for per well in 96-well plates and were exposed to indicated compounds with a concentration of 3.3 to 10 μM for 72 hours. For assays with DFCI58-229 cell, DFCI127c cell, or DFCI362JC cell, 5000 cells were seeded per well in 96-well plates and were exposed to indicated compounds with a concentration of 3.3 to 10 μM for 72 hours.
(In general: Tetrazolium dyes change colour on reduction, which living cells bring about.)
`CC#CC(=O)Nc1cc(Nc2ncc3cc(Oc4ccc(F)cc4F)c(=O)n(C)c3n2)c(OC)cc1N(C)CCN(C)C` [Compound 125] came in with an EC50 of less than 0.2 µM.
The same measure, in the same setting: next, `C=CC(=O)Nc1cc(Nc2ncc3cc(Oc4ccc(C)cc4)c(=O)n(C)c3n2)c(OC)cc1N(C)CCN(C)C` [Compound 131]: less than 0.2 µM; `C=CC(=O)Nc1cc(Nc2ncc3cc(Oc4ccccc4)c(=O)n(C)c3n2)c(OC)cc1N(C)CCN(C)C` [Compound 132]: less than 0.2 µM; `C=CC(=O)Nc1cc(Nc2ncc3cc(Oc4ccc(F)cc4Cl)c(=O)n(C)c3n2)c(OC)cc1N(C)CCN(C)C` [Compound 134]: less than 0.2 µM.

The next assay deals with T2, EGFR InsGY (D770delinsGY) transformed Ba/F3 cells (Homo sapiens, UniProt P00533, D770Y/INS769G).
T2 construct: expressed in transfected cells; host or cells: Ba/F3
Nature of the assay: Proliferation inhibition assay, EGFR InsGY transformed Ba/F3 cells. The class given is cell-based. Particulars: MTS assay, 72 hours. Here is the method: as §1, §2, §3
In turn, `CC#CC(=O)Nc1cc(Nc2ncc3cc(Oc4ccc(F)cc4F)c(=O)n(C)c3n2)c(OC)cc1N(C)CCN(C)C` [Compound 125] returned an EC50 of less than 0.2 µM.
Still for that read-out and setting: next, `C=CC(=O)Nc1cc(Nc2ncc3cc(Oc4ccc(F)cc4Cl)c(=O)n(C)c3n2)c(OC)cc1N(C)CCN(C)C` [Compound 134]: less than 0.2 µM.

For the next assay, the target named is T3, EGFR InsH transformed Ba/F3 cells (Homo sapiens, UniProt P00533, DUP773-773).
T3 construct: expressed in transfected cells; host or cells: Ba/F3
T3 sequence (P00533 with tags, fused parts or gaps DUP773-773): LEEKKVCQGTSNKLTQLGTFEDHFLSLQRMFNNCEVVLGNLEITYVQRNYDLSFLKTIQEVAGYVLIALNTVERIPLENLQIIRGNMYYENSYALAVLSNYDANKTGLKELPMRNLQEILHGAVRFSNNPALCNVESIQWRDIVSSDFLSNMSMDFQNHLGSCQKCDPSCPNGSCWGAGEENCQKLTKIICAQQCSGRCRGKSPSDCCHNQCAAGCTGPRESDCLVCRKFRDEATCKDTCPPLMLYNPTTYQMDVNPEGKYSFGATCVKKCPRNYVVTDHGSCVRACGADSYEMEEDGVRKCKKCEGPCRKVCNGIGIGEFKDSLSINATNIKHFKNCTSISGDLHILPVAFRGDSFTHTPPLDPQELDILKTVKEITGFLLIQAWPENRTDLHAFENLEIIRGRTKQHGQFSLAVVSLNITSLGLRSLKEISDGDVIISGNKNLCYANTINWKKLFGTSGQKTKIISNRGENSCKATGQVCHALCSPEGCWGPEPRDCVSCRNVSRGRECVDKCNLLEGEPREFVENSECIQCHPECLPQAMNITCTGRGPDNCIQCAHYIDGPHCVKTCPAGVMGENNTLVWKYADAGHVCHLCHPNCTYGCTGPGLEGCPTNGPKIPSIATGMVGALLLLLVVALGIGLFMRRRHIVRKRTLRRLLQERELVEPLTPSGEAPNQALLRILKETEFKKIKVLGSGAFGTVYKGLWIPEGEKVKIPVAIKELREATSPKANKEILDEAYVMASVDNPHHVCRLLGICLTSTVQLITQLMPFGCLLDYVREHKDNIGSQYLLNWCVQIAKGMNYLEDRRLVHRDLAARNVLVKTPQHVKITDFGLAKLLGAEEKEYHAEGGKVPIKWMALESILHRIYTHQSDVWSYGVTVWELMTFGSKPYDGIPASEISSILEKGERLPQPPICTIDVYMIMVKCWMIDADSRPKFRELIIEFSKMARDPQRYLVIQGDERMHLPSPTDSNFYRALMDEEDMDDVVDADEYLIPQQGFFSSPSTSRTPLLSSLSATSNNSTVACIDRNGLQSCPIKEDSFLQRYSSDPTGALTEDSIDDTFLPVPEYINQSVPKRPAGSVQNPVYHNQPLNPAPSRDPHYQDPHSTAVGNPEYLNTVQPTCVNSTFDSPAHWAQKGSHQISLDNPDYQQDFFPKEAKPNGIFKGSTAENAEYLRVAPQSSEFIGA
Nature of the assay: Proliferation inhibition assay, EGFR InsH transformed Ba/F3 cells. The class given is cell-based. Conditions: MTS assay, 72 hours. As to the method:
as §1, §2, §3
`CC#CC(=O)Nc1cc(Nc2ncc3cc(Oc4ccc(F)cc4F)c(=O)n(C)c3n2)c(OC)cc1N(C)CCN(C)C` [Compound 125]: the EC50 lay within 0.6 to 1 µM.
The same measure, in the same setting: next, `C=CC(=O)Nc1cc(Nc2ncc3cc(Oc4ccc(C)cc4)c(=O)n(C)c3n2)c(OC)cc1N(C)CCN(C)C` [Compound 131]: 0.2 to 0.6 µM.
`C=CC(=O)Nc1cc(Nc2ncc3cc(Oc4ccccc4)c(=O)n(C)c3n2)c(OC)cc1N(C)CCN(C)C` [Compound 132] yielded an EC50 of less than 0.2 µM.
The same measure, in the same setting: the result for `C=CC(=O)Nc1cc(Nc2ncc3cc(Oc4ccc(F)cc4Cl)c(=O)n(C)c3n2)c(OC)cc1N(C)CCN(C)C` [Compound 134] reads 0.2 to 0.6 µM.

In a further assay the target is T4, wild-type EGFR transformed Ba/F3 cells (Homo sapiens, UniProt P00533).
T4 construct: expressed in transfected cells; host or cells: Ba/F3
T4 sequence (P00533 25-1210): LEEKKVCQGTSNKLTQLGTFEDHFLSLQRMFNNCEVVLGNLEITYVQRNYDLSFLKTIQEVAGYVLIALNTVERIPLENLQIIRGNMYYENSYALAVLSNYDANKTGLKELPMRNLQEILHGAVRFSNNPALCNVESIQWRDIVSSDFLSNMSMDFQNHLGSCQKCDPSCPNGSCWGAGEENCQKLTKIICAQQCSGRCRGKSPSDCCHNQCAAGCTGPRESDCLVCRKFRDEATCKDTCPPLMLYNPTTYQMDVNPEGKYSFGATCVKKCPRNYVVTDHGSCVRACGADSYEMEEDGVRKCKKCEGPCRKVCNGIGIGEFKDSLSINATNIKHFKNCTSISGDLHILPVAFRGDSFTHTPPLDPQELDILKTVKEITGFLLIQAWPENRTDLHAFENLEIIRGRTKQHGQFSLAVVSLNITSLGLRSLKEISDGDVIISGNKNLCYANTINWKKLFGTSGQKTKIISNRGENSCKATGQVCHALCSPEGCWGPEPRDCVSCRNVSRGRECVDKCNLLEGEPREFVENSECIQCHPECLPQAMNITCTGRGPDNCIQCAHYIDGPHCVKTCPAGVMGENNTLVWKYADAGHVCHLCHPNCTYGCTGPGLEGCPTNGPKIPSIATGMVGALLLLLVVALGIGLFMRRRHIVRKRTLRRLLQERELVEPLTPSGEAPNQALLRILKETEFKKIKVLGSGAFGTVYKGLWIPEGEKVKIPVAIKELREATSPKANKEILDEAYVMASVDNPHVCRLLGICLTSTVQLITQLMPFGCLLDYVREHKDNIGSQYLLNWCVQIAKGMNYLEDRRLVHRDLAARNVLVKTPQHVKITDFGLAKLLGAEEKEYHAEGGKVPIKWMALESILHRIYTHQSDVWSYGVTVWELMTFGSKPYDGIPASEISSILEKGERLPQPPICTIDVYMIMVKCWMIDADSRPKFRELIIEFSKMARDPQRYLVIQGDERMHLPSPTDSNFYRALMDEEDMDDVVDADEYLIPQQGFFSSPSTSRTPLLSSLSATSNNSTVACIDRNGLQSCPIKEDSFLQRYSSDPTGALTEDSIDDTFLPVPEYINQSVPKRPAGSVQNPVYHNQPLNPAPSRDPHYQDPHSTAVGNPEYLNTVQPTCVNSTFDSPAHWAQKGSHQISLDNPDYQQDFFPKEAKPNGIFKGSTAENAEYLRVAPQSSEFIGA
Put plainly: Proliferation inhibition assay, wild-type EGFR transformed Ba/F3 cells. The class given is cell-based. Particulars: MTS assay, 72 hours. Here is the method: as §1, §2, §3
The molecule `CC#CC(=O)Nc1cc(Nc2ncc3cc(Oc4ccc(F)cc4F)c(=O)n(C)c3n2)c(OC)cc1N(C)CCN(C)C` [Compound 125] gave an EC50 of less than 0.2 µM.
The same measure, in the same setting: the result for `C=CC(=O)Nc1cc(Nc2ncc3cc(Oc4ccc(C)cc4)c(=O)n(C)c3n2)c(OC)cc1N(C)CCN(C)C` [Compound 131] reads less than 0.2 µM; that for `C=CC(=O)Nc1cc(Nc2ncc3cc(Oc4ccccc4)c(=O)n(C)c3n2)c(OC)cc1N(C)CCN(C)C` [Compound 132], less than 0.2 µM; that for `C=CC(=O)Nc1cc(Nc2ncc3cc(Oc4ccc(F)cc4Cl)c(=O)n(C)c3n2)c(OC)cc1N(C)CCN(C)C` [Compound 134], less than 0.2 µM.

The target in the next assay is T5, HER2 InsWLV transformed Ba/F3 cells (Homo sapiens, UniProt P04626, INS773WL/M774V).
T5 construct: expressed in transfected cells; host or cells: Ba/F3
Put plainly: Proliferation inhibition assay, HER2 InsWLV transformed Ba/F3 cells. The class given is cell-based. Particulars: MTS assay, 72 hours, Table 10 key. Here is the method:
as §1, §2, §3
With `CC#CC(=O)Nc1cc(Nc2ncc3cc(Oc4ccc(F)cc4F)c(=O)n(C)c3n2)c(OC)cc1N(C)CCN(C)C` [Compound 125], the EC50 fell in the range of 0.2 to 0.6 µM.
On the same count and under the same terms, the result for `C=CC(=O)Nc1cc(Nc2ncc3cc(Oc4ccc(C)cc4)c(=O)n(C)c3n2)c(OC)cc1N(C)CCN(C)C` [Compound 131] reads less than 0.2 µM.
Still for that read-out and setting: the result for `C=CC(=O)Nc1cc(Nc2ncc3cc(Oc4ccccc4)c(=O)n(C)c3n2)c(OC)cc1N(C)CCN(C)C` [Compound 132] reads less than 0.2 µM; that for `C=CC(=O)Nc1cc(Nc2ncc3cc(Oc4ccc(F)cc4Cl)c(=O)n(C)c3n2)c(OC)cc1N(C)CCN(C)C` [Compound 134], less than 0.2 µM.

The target of a further assay is T6, HER2 InsYVMA (A775_G776insYVMA) transformed Ba/F3 cells (Homo sapiens, UniProt P04626, INS775YVMA).
T6 construct: expressed in transfected cells; host or cells: Ba/F3
Put plainly: Proliferation inhibition assay, HER2 InsYVMA transformed Ba/F3 cells. The class given is cell-based. Conditions: MTS assay, 72 hours, Table 10 key. Here is the method:
as §1, §2, §3
`CC#CC(=O)Nc1cc(Nc2ncc3cc(Oc4ccc(F)cc4F)c(=O)n(C)c3n2)c(OC)cc1N(C)CCN(C)C` [Compound 125] yielded an EC50 of less than 0.2 µM.
Same read-out and setting: next, `C=CC(=O)Nc1cc(Nc2ncc3cc(Oc4ccc(C)cc4)c(=O)n(C)c3n2)c(OC)cc1N(C)CCN(C)C` [Compound 131]: less than 0.2 µM.
Still for that read-out and setting: next, `C=CC(=O)Nc1cc(Nc2ncc3cc(Oc4ccccc4)c(=O)n(C)c3n2)c(OC)cc1N(C)CCN(C)C` [Compound 132]: less than 0.2 µM.
Still for that read-out and setting: the result for `C=CC(=O)Nc1cc(Nc2ncc3cc(Oc4ccc(F)cc4Cl)c(=O)n(C)c3n2)c(OC)cc1N(C)CCN(C)C` [Compound 134] reads less than 0.2 µM.

The target of another assay is T7, wild-type HER2 transformed Ba/F3 cells (Homo sapiens, UniProt P04626).
T7 construct: expressed in transfected cells; host or cells: Ba/F3
T7 sequence (P04626 23-1255): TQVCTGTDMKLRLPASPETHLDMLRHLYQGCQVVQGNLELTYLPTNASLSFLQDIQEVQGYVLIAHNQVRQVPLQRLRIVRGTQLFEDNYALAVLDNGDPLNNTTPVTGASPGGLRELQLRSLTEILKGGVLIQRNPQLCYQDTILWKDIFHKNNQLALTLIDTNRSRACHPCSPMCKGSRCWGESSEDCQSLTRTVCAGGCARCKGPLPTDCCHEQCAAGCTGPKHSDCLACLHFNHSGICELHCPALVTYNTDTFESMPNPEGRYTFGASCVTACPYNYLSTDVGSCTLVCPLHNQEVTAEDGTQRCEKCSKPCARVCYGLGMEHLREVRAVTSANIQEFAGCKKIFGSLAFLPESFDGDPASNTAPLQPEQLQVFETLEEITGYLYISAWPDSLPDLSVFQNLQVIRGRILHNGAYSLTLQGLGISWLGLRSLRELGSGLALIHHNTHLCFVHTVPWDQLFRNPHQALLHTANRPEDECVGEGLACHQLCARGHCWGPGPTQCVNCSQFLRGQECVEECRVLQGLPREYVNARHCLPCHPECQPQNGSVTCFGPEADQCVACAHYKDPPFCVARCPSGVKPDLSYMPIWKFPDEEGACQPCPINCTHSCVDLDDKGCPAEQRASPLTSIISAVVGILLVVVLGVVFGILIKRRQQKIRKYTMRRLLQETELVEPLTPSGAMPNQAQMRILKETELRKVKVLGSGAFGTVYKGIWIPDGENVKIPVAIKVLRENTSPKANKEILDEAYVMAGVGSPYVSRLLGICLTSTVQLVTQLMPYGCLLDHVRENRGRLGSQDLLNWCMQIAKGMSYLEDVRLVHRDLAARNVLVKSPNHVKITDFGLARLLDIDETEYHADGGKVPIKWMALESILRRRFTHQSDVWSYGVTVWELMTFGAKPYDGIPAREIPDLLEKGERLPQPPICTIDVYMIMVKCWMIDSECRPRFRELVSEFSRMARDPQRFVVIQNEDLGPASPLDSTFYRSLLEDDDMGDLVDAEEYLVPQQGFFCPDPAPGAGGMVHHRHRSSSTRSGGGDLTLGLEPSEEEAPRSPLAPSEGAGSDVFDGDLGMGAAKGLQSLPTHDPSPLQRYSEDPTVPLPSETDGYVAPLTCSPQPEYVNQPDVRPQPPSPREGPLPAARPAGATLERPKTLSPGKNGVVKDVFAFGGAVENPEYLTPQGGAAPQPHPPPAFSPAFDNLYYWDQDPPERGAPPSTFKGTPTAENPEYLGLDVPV
Put plainly: Proliferation inhibition assay, wild-type HER2 transformed Ba/F3 cells. The class given is cell-based. Particulars: MTS assay, 72 hours, Table 10 key. Here is the method: as §1, §2, §3
`CC#CC(=O)Nc1cc(Nc2ncc3cc(Oc4ccc(F)cc4F)c(=O)n(C)c3n2)c(OC)cc1N(C)CCN(C)C` [Compound 125] registered an EC50 of less than 0.2 µM.
Still for that read-out and setting: next, `C=CC(=O)Nc1cc(Nc2ncc3cc(Oc4ccc(C)cc4)c(=O)n(C)c3n2)c(OC)cc1N(C)CCN(C)C` [Compound 131]: less than 0.2 µM; `C=CC(=O)Nc1cc(Nc2ncc3cc(Oc4ccccc4)c(=O)n(C)c3n2)c(OC)cc1N(C)CCN(C)C` [Compound 132]: less than 0.2 µM; `C=CC(=O)Nc1cc(Nc2ncc3cc(Oc4ccc(F)cc4Cl)c(=O)n(C)c3n2)c(OC)cc1N(C)CCN(C)C` [Compound 134]: less than 0.2 µM.
